Data set [1] has as its system Hepa 1-6 (mouse hepatoma) cells. The data set is described as follows: In vitro cellular uptake by fluorescence microscopy, Hepa 1-6. Format: cell-based. Particulars: 0.150 μmol in 220 μl via mixing chamber, 30 sec exposure.
Description: In Vitro cellular uptake of PI, RRH-PI compounds, and IV evaluated by fluorescence measurements. PI and the RRH-prodrugs were tested for cellular uptake on several cell lines which included B16 (murine melanoma), Hepa 1-6 (mouse hepatoma), SK-OV-3 (also SKOV-3, human ovarian carcinoma), OVCAR-3 (human ovarian carcinoma), Jurkat (human T-lymphocyte), 293 (human embryonic kidney), and MC38 (mouse colon carcinoma) cells. Adherent cells were plated at 2.5×10^5 cells/well on 6-well plates 24 h prior to testing. The growth media was removed from individual wells and the drug/prodrug was immediately added to the well with the mixing chamber. Final drug/prodrug concentrations were 0.150 μmol in 220 μl total volume (20 μl OS, 200 μl ITG). After 30 sec the drug solution was removed (aspirated) and 2 ml complete media was added to the cells. Experiments conducted with prodrug that was hydrolyzed prior to application to the cells followed a similar protocol, however the combined solution obtained after passing through the mixing chamber was collected and allowed to sit at ambient temperature for 5 min prior to application on the cells. […] SYTOX Green (20 μl of 5 μM solution in 20 mM Hepes, pH 7.4) was added to the wells and the cells were examined. Each condition was repeated in 2 or 3 wells, and the cells were immediately examined by microscopy. Fluorescent microscopy studies were conducted with a three laser LSM 510 confocal microscope, an Axiovert S100 fluorescent microscope, or an Axioplan2 fluorescent microscope (all Zeiss) equipped with filter sets for the rhodamine fluorescence channel (λex=BP 450/12, λem=LP 590 nm filter set) and the fluorescein fluorescent channel (λex=BP 546/90, λem=LP 515 nm filter set). Imaging was performed with an AxioCam digital camera (Zeiss), with AxioVision imaging software (V 4.5, Zeiss). For all images, identical camera settings and exposure times were used on comparative sample and control images. Images were processed with Photoshop (Adobe) for level and brightness using identical settings between sample and control images.
Data set [2] deals with SK-OV-3 (human ovarian carcinoma) cells. The data set is described as follows: In vitro cellular uptake by fluorescence microscopy, SK-OV-3. Type of data set: cell-based. Particulars: for PI positive cells: 0.150 μmol in 220 μl via mixing chamber, 30 sec exposure; for PI positive cells, prodrug premixed with ITG: premixed with ITG (5 min) before application to the cells. How it is done: In Vitro cellular uptake of PI, RRH-PI compounds, and IV evaluated by fluorescence measurements. […] Adherent cells were plated at 2.5×10^5 cells/well on 6-well plates 24 h prior to testing. The growth media was removed from individual wells and the drug/prodrug was immediately added to the well with the mixing chamber. […] After 30 sec the drug solution was removed (aspirated) and 2 ml complete media was added to the cells. Experiments conducted with prodrug that was hydrolyzed prior to application to the cells followed a similar protocol, however the combined solution obtained after passing through the mixing chamber was collected and allowed to sit at ambient temperature for 5 min prior to application on the cells. Experiments conducted with Calcein AM (Invitrogen, 100 μl of 20 μM solution in complete media) followed a similar protocol for drug treatment (4 min treatment). Experiments conducted with SYTOX Green (Invitrogen) followed a similar protocol for drug treatment. […] Each condition was repeated in 2 or 3 wells, and the cells were immediately examined by microscopy. Fluorescent microscopy studies were conducted with a three laser LSM 510 confocal microscope, an Axiovert S100 fluorescent microscope, or an Axioplan2 fluorescent microscope (all Zeiss) equipped with filter sets for the rhodamine fluorescence channel (λex=BP 450/12, λem=LP 590 nm filter set) and the fluorescein fluorescent channel (λex=BP 546/90, λem=LP 515 nm filter set). Imaging was performed with an AxioCam digital camera (Zeiss), with AxioVision imaging software (V 4.5, Zeiss). For all images, identical camera settings and exposure times were used on comparative sample and control images. Images were processed with Photoshop (Adobe) for level and brightness using identical settings between sample and control images. For experiments conducted with IV, the cells were plated on 6-well plates with cover slips. […] Imaging was conducted on an Axioplan2 fluorescent microscope (Zeiss) and the same fields were imaged with phase contrast illumination, in the rhodamine fluorescence channel (λex=BP 450/12, λem=LP 590 nm filter set), and in the fluorescein fluorescent channel (λex=BP 546/90, λem=LP 515 nm filter set). IV was also mixed with PI and then delivered to SK-OV-3 cells, and the cells were imaged as before. In one protocol, equal amounts of IV (15.0 mM in DMSO) and PI (15.0 mM in DMSO) were combined and the resulting solution was added to cells via the mixing chamber. In a second method, PI was taken up in the ITG solution (0.748 mM) and mixed with IV (7.48 mM in DMSO) in the mixing chamber. […] The cells were imaged as before following 30 sec-4 min exposure to the drug solution.

The subject of the next data set is MC38 liver metastases. Briefly: Liver arterial bolus injection (LABI) in mice with MC38 liver metastases. Type of data set: in vivo, C57BL mice. Particulars: for PI staining of MC38 liver metastases: hepatic artery (LABI) delivery.
For data set [3], the system named is cells exposed to the peritoneal cavity. Briefly: IP application to normal mice, confocal microscopy. Format: in vivo, mouse. Particulars: 10-60 min.
Description: For evaluation of prodrug delivery to exposed tissues in the peritoneum, we tested IP application of propidium iodide, BDMSODS-PI, and C12PMMA-PI to both normal mice and in a mouse model of disseminated peritoneal ovarian cancer. All procedures were executed under Isoflurane inhalation anesthesia. In normal mice either the abdominal cavity was opened and the drug mixture was directly applied on abdominal organs (220 μL of drug-OS/ITG over 30 sec), or the drug mixture was injected through the abdominal wall (1 mL of drug-OS/ITG over 1 min). For both delivery protocols, the dual pump mixing chamber was used. After 10-60 min, the animals were euthanized and tissues were harvested, frozen, sectioned, stained with ToPro-3 and Phalloidin Alexa 488, and examined by laser confocal microscopy.
Data set [4] concerns Hepa 1-6 (mouse hepatoma). The data set is described as follows: WST cytotoxicity assay, Hepa 1-6. Particulars: for IC50: Hepa 1-6, 4 min drug exposure, read-out: Mean IC50. Format: cell-based. The procedure: (§1) Antiproliferative/Cytotoxic in vitro studies on PI, RRH-PI prodrugs, melphalan, and C12PMMA-melphalan. In vitro cytotoxicity testing was conducted on Hepa 1-6 (mouse hepatoma), SK-OV-3 (human ovarian carcinoma), and MC38 (mouse colon carcinoma) cells using a tetrazolium based assay (WST, Dojindo Molecular Technologies). For the WST assay, Hepa 1-6 (2.0×10^5 cells well), SK-OV-3 (7.5×10^5 cells well), and MC38 (8.5×10^5 cells well) were seeded in 1000 μL media into 12-well plates 24 h prior to testing (starting confluency ˜50%). Following removal of media, drug/prodrug solution was added drop-wise to quadruplicate wells, using the mixing chamber. Effective drug concentrations were calculated from the amount of drug added in the total volume of OS and aqueous solution. Following 4 min of drug solution exposure, the solution was removed, and 1000 μl fresh complete media was added to each well. After the cells were incubated for 24-48 h, WST-1 (20 μl of a 5 mM solution in PBS) and N-methylphenazonium methyl sulfate (PMS, 20 μl 0.2 mM solution in PBS) were added and the cells were incubated for 1-4 h. For testing with MC38 cells, the amounts of WST-1 and PMS were doubled. Following incubation, 100 μl of sample was transferred to quadruplicate wells on a 96-well plate, and the absorbance (438 nm) values were measured on a SPECTRAmax Plus^384 microplate spectrophotometer (Molecular Devices Corporation). Data represents the mean A438 values of 16 wells with standard deviation, corrected for media contribution, and normalized against cells in media with no drug/prodrug treatment (reported as % cell viability±standard deviation).
(§2) The concentration of drug (μM) that is required for 50% inhibition in vitro is reported as the IC50. The reported values were calculated from the best fit line (Excel) for a plot of effective drug concentration against % cell viability, and include the r^2 value. The reported IC50 values for multiple RRH-PI plots are reported as IC50 (μM)±standard deviation.

Data set [5] deals with SK-OV-3 (human ovarian carcinoma). The data set is described as follows: WST cytotoxicity assay, SK-OV-3. Type of data set: cell-based. Particulars: SK-OV-3, 4 min drug exposure, read-out: Mean IC50. How it is done:
as §1, §2

Data set [6] concerns various tissues of normal mice. Briefly: Propidium iodide delivery to a variety of target cells by injection or topical administration. Type of data set: in vivo, mouse. How it is done: Propidium iodide delivery to a variety of target cells. […] All biliary and gall bladder arteries, as well as bladder epithelium also stained (FIG. 14B). […] During injection time the common carotid artery was temporary occluded. After injection the blood flow was restored and animals sacrificed 5 min later. […] After three weeks, mice were injected with modified PI. […] Injection was performed using similar 35 G needle into right ureter close to the bladder. […] Clamps were then released and 5 min later animals were sacrificed. The intestine lumen was flushed with 1 ml of ITG and analyzed as described above.

The mark [7] stands for this setting: intestinal intra lumen application, 100 μg.

Entries after “also recorded” stand apart in the source; their conditions may differ. Where two headings read alike, the source gives them in different places.

Description for MC38 liver metastases: All surgical procedures were performed under Isoflurane anesthesia. Liver tumors models were established in C57BL mice using MC38 (colon carcinoma) and Hepa 1-6 (hepatoma), in BALB/c mice using B16 (melanoma), and in A/J mice using NXS2 (neuroblastoma) cell lines. Mice were inoculated via the portal vein with 1×10^4 MC38 cells or 0.5-1.25×10^6 Hepa 1-6 cells, or via the tail vein with 0.5-1.25×10^6 B16 or NXS2 cells. Tumor formation was allowed to progress for 2-3 weeks with periodic examination for tumor growth prior to drug/prodrug treatment.
The right gastro-duodenal artery was freed from surrounding tissue and the common hepatic artery was clamped occluding blood flow. The distal part of the right gastroduodenal artery was sutured, a 35 G needle was inserted into the gastroduodenal artery, and secured during the single bolus injection. Following the injection, the needle was retracted and the proximal part of gastroduodenal artery was sutured, and hepatic artery flow was restored. Alternatively, the celiac trunk was clamped close to the aorta and a 35 G needle was inserted above the clamp. The left gastric, splenic, and gastro-duodenal arteries were clamped in order to direct all of the drug solution to the liver. This latter approach was advantageous in the C57BL mouse model because of anatomical variations involving the hepatic artery.
LABI delivery of drug/prodrug (0.150 μmol, 220 μl total injection volume) and controls were performed using the mixing chamber and syringe pumps as previously described. For fluorescent microscopy analysis, the livers were harvested 5 min after LABI, snap frozen in O.C.T. compound, sectioned, stained (for confocal, green—actin (Alexa 488), blue—nuclei (ToPro-3)), and analyzed by fluorescent (Axioplan2) fluorescent microscope (Zeiss) in the rhodamine fluorescence channel (λex=BP 450/12, λem=LP 590 nm filter set) or in the fluorescein fluorescent channel (λex=BP 546/90, λem=LP 515 nm filter set) due to signal intensity) and confocal microscopy (Axioplan 2, Zeiss). For experiments designed to determine the number of PI positive cells, five random fields containing liver tumors and five random fields containing portal triads void of tumor were imaged. The number of cells and positive cells were counted to determine the percentage of positive cells in the corresponding regions.

As to `CCCCCCCCCCCCNC(=O)CCC(=CCC(=O)O)C(=O)Nc1ccc2c(c1)c(-c1ccccc1)[n+](CCC[N+](C)(CC)CC)c1cc(NC(=O)C(=CCC(=O)O)CCC(=O)NCCCCCCCCCCCC)ccc21.[I-].[I-]` [III, 3,8-bis-[2-(2 carboxyethylidene)-4-(dodecarbamoyl)-1-oxo-butylamine] 5-(3,3-diethyl-3-methylammoniumpropyl) 6-phenyl phenanthridinium diiodide], in data set [1], the “staining of cells (PI positive)” value was “paralleled the results obtained with II”. Moreover, the PI positive cells entry in data set [2] is recorded as “paralleled the results obtained with II”. In addition, the “PI staining of MC38 liver metastases” value with MC38 liver metastases is “paralleled the results detailed with II”. Further, in data set [3], the “nuclear labeling of peritoneal tissues” value is given as “near-exclusive PI^+-staining of cells exposed to the peritoneal cavity”.

In the case of `CCCCCCCCCCCCCCCCCC[Si](C)(C)Nc1ccc2c(c1)c(-c1ccccc1)[n+](CCC[N+](C)(CC)CC)c1cc(N[Si](C)(C)CCCCCCCCCCCCCCCCCC)ccc21.[I-].[I-]` [II, 3,8-bis[((dimethyl)octadecylsilazyl)amine] 5-(3,3-diethyl-3-methylammoniumpropyl) 6-phenyl phenanthridinium diiodide], the “staining of cells (PI positive)” value in data set [1] is reported as “strong nuclear staining in all of the cells”. Besides, in data set [2], the PI positive cells result was “nearly all of the cells being PI positive”. The “PI positive cells, prodrug premixed with ITG” value was “very few PI positive cells” in data set [2] and “did not show PI positive staining” in data set [2] (listed as BDMODS-PI). Besides, in data set [4] (Hepa 1-6, 833 μM), the “cell viability at highest concentration tested, prodrug premixed with ITG (10 min)” value is 108±1.3%. For the same compound, the IC50 came out at 282 µM in data set [4] (WST 24 h after), 334 µM in data set [4] (WST 48 h after), 194 µM in data set [5] (WST 24 h after) and 257 µM in data set [5] (WST 48 h after). Besides, the nuclear staining entry in data set [6] (injection into bile duct of normal mouse liver) is “strong nuclear staining of all bile duct epithelial cells”; in data set [6] (injection into emptied bladder), “strong staining of bladder transitional epithelium”; in data set [6] (injection into hepatic artery of normal mouse liver), “strong nuclear staining of hepatic artery endothelial and smooth-muscle cells”; in data set [6] (injection into right carotid artery), “strong staining of brain endothelial cells”; in data set [6] (injection into the ureter), “strong staining of ureter transitional epithelium nuclei”; in data set [6] (injection into unclamped portal vein with preserved blood flow), “strong nuclear staining of portal vein cells only”. Moreover, the nuclear staining result in data set [6] (setting [7]) is reported as “strong labeling of all enterocyte nuclei”; in data set [6] (portal vein clamped during injection), “propidium iodide staining was observed in a majority of hepatocytes”. For the same compound, the “cells PI positive in liver parenchyma region” value with MC38 liver metastases (LABI, confocal counting) was 1%. Also, in the data set on MC38 liver metastases (LABI, confocal counting), the “cells PI positive in portal vein region” value was 23%. In addition, the “cells PI positive in MC38 metastases” value in the data set with MC38 liver metastases (LABI, confocal counting, average of five images) was 94%. Further, the “PI positive cells in other organs (heart, lung, spleen, and kidneys)” value with MC38 liver metastases (after LABI) is reported as “No PI positive cells were observed in any other organ examined”. Further, the “total number of PI positive non tumor cells in the liver” value in the data set with MC38 liver metastases (estimated from region counts) is listed as 2-3%. Moreover, the “PI staining of MC38 liver metastases” value was “strong nuclear staining of the metastases” in the data set on MC38 liver metastases and “intense, near-exclusive PI-staining of MC38 liver metastases; also recorded: strongly labeled with PI; also recorded: nearly all cells labeled” in the data set on MC38 liver metastases (listed as BDMODS-PI). Besides, in data set [3], the “nuclear labeling of peritoneal tissues” value is recorded as “near-exclusive PI^+-staining of cells exposed to the peritoneal cavity”.

Regarding `CC[N+](C)(CC)CCC[n+]1c(-c2ccccc2)c2cc(N)ccc2c2ccc(N)cc21.[I-].[I-]` [PI, Propidium iodide, reference compound], the “staining of cells (PI positive)” value in data set [1] is “stained very few cells”. The PI positive cells entry in data set [2] is on record as “small percentage of PI positive cells”; in data set [2] (listed as propidium iodide), “stained very few cells”. Moreover, the 50% inhibitory concentration (IC50) is more than 1250 µM in data set [4] (WST 24 h after), more than 1700 µM in data set [4] (WST 48 h after), more than 1250 µM in data set [5] (WST 24 h after) and more than 1700 µM in data set [5] (WST 48 h after). The nuclear staining entry is listed as “little to no nuclear staining” in data set [6] (injection into any vessel or bile duct of normal liver) and “PI staining was observed in a few intestinal villi cells” in data set [6] (setting [7]). For the same compound, the “PI staining of MC38 liver metastases” value with MC38 liver metastases is reported as “greatly decreased number of PI positive cells within the MC38 metastases”; with MC38 liver metastases (listed as unmodified PI), “Few MC38 metastases labeled”. In data set [3], the “nuclear labeling of peritoneal tissues” value is given as “extremely rare nuclear labeling”.

The term cell viability denotes a read-out of living cells in per cent, often relative to untreated cells. Broadly, the IC50 is the concentration at which inhibition is half-maximal.

Source of the values: US20090074885A1, “Reversible Hydrophobic Modification of Drugs for Improved Delivery to Cells” (Roche Madison Inc., priority 2003, published 2009).
